“Also recorded” adds a separate entry of the source. Like-named read-outs stand apart in the source and are kept apart here.
Experiments:
[1] = Multiple ascending dose study, plasma pharmacokinetics; assay type: in vivo, human (healthy volunteers); conditions: for AUC tau / Cmax at 288 h / half-life / Tmax at 288 h: Day 12; for AUC(0-t) at 24 h / Cmax at 24 h / Tmax at 24 h: Day 1
Procedure: (§1) A clinical study was developed to evaluate safety, tolerability, pharmacokinetics, and pharmacodynamics of Compound 1 at plasma steady-state in 40 healthy human volunteers. Compound 1 (provided as Compound 1 phosphate) was administered to participants as multiple ascending doses of 0.5 mg (N=6), 1.0 mg (N=6), 1.5 mg (N=6), 2.0 mg (N=6), or 5.0 mg (N=6) once daily (QD) for 12 days.
Blood samples were collected, and plasma concentrations were measured using a validated high performance liquid chromatography/liquid chromatography-mass spectrometry/mass spectrometry method. The PK parameters assessed included Cmax, Tmax, AUC from administration to the end of dosing (AUC0-t), AUC0-24, AUC0-inf, t1/2, terminal rate constant (λz), apparent total clearance of the drug from plasma (CL/F), and apparent volume of distribution during terminal phase after non-intravenous administration (Vz/F).
The plasma concentration data for Compound 1 were summarized by dose level and the planned sampling time points using descriptive statistics (n, SD, median, minimum, maximum, geometric mean, and coefficient of variance (CV %) for the geometric mean) for the PK Analysis Set.
Specifically, samples for PK analyses were taken on Day 1 and Day 12 pre-dose, 0.5, 1, 1.5, 3, 6, 8, 10, and 12 h post-dose, with additional samples taken on every dosing Day (24 hours after the previous day's dose) and 24, 72, 168, and 336 h after last dosing on Day 12. All individual Compound 1 concentrations were above the LLOQ of 0.0500 ng/mL at 0.5 h post-dose, except for 1 participant, for whom the concentration was above the LLOQ at 1 h post-dose.

alertness/sedation = assay: MOAA/S (Modified Observer's Assessment Alertness/Sedation); assay type: in vivo, human (healthy volunteers)
Procedure: as §1
Safety and tolerability of Compound 1 were assessed through listings and summaries by Compound 1 dose versus placebo (observed and change from baseline where applicable) for the following measures: treatment-emergent adverse events (TEAEs), clinical laboratory evaluation, vital signs, electrocardiogram, physical examination, pregnancy test, C-SSRS, and MOAA/S (Modified Observer's Assessment Alertness/Sedation). Continuous safety data were summarized with descriptive statistics (n, arithmetic mean, standard deviation (SD), median, minimum, and maximum) by dose level. Categorical safety data were summarized with incidence counts and percentages by dose level.
No clear difference from placebo in sedation across ascending Cohorts according to objective MOAA/S (Modified Observer's Assessment Alertness/Sedation) scoring was observed. A decrease in the MOAA/S score for alertness/sedation indicates impaired participant alertness and increased sedation as objectively determined by a clinician. […] For Compound 1 5.0 mg, a MOAA/S score of 2 (“Responds only after mild prodding or shaking”) was assessed for 1 participant. For the other participants in the Compound 1 5.0 mg Cohort and all other Cohorts, MOAA/S scores were above 3 indicating no difference from placebo in sedation across ascending Cohorts.

[2] = target: human GABAA receptor α2/β3/γ2 (Homo sapiens, UniProt P18507+P47869); assay: SyncroPatch platform, PAM mode, GABAA α2/β3/γ2
Sequence of human GABAA receptor α2/β3/γ2 (P47869 29-451): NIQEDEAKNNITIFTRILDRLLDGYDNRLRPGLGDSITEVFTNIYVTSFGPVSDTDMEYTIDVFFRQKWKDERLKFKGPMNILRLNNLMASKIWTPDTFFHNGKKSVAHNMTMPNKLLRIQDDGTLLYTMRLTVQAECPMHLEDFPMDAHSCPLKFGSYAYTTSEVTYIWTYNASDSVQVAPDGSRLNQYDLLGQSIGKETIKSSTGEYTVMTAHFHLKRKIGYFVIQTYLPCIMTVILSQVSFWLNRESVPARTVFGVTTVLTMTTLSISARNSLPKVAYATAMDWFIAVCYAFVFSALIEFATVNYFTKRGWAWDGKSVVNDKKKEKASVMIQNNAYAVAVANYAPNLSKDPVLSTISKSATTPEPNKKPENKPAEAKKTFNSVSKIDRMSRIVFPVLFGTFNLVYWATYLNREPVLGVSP
Sequence of human GABAA receptor α2/β3/γ2 (P18507 40-475): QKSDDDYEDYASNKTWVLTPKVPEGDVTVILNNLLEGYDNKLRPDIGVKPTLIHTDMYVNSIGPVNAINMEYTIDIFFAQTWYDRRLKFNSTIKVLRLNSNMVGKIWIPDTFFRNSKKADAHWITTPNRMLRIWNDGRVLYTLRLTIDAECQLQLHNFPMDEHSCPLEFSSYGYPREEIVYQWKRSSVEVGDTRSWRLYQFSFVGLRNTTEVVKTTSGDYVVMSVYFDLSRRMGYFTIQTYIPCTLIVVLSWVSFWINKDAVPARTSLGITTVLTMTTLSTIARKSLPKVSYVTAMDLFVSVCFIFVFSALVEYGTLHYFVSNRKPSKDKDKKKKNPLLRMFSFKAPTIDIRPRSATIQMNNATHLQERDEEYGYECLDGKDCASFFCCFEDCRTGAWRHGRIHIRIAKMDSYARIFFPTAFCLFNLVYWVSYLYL
Sequence of human GABAA receptor α2/β3/γ2 (P28472 26-473 partner): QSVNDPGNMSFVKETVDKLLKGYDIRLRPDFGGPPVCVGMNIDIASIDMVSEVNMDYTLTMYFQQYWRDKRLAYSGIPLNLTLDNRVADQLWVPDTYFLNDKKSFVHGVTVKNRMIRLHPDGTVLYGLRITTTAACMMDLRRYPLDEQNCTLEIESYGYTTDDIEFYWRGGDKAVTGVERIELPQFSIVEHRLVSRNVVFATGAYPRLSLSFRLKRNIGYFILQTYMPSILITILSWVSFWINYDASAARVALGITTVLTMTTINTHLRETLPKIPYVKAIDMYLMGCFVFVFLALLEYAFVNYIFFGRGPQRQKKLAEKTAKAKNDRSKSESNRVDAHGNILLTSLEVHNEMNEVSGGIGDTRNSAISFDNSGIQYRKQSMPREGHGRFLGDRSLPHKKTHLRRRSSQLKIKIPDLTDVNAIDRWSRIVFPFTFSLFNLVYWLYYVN

[3] = human, plasma, po, 2 mg, 2.0 mg oral QD, read-out: Cmax (mean)
[4] = human, plasma, po, 2 mg, 2.0 mg oral QD, read-out: Cmax (median)
[5] = human, plasma, po, 5 mg, 5.0 mg oral QD, read-out: Cmax (mean)
[6] = human, plasma, po, 5 mg, 5.0 mg oral QD, read-out: Cmax (median)
[7] = human, plasma, 0.5 mg oral QD, read-out: Tmax (median)
[8] = human, plasma, 1.0 mg oral QD, read-out: Tmax (median)
[9] = human, plasma, 1.5 mg oral QD, read-out: Tmax (median)
[10] = human, plasma, 2.0 mg oral QD, read-out: Tmax (median)
[11] = human, plasma, 5.0 mg oral QD, read-out: Tmax (median)

SMILES: CC(C)(O)c1cnn2c(-c3ccc(F)c(-c4c(F)cccc4C#N)c3)cnc2n1 [Compound 1, 2′,6-difluoro-5′-(3-(2-hydroxypropan-2-yl)imidazo[1,2-b][1,2,4]triazin-7-yl)-[1,1′-biphenyl]-2-carbonitrile]
- AUC tau ([1]; human, plasma, po, 1.5 mg, 1.5 mg oral QD, read-out: AUCtau (mean)): 706 ± 84 ng·h/mL
- AUC tau ([1]; human, plasma, po, 1.5 mg, 1.5 mg oral QD, read-out: AUCtau (median)): 738 ng·h/mL
- Cmax at 288 h ([1]; human, plasma, po, 1.5 mg, 1.5 mg oral QD, read-out: Cmax (mean)): 41.7 ± 5 ng/mL
- Cmax at 288 h ([1]; human, plasma, po, 1.5 mg, 1.5 mg oral QD, read-out: Cmax (median)): 42.6 ng/mL
- half-life ([1]; human, plasma, po, 1.5 mg, 1.5 mg oral QD, read-out: t1/2 (mean) (converted)): 51 ± 18 h
- half-life ([1]; human, plasma, po, 1.5 mg, 1.5 mg oral QD, read-out: t1/2 (median) (converted)): 49.1 h
- AUC(0-t) at 24 h ([1]; human, plasma, po, 2 mg, 2.0 mg oral QD, read-out: AUC0-24 (mean)): 244 ± 48 ng·h/mL
- AUC(0-t) at 24 h ([1]; human, plasma, po, 2 mg, 2.0 mg oral QD, read-out: AUC0-24 (median)): 226 ng·h/mL
- Cmax at 24 h [1, 3]: 19.6 ± 4 ng/mL
- Cmax at 24 h [1, 4]: 19.9 ng/mL
- AUC tau ([1]; human, plasma, po, 2 mg, 2.0 mg oral QD, read-out: AUCtau (mean)): 873 ± 331 ng·h/mL
- AUC tau ([1]; human, plasma, po, 2 mg, 2.0 mg oral QD, read-out: AUCtau (median)): 891 ng·h/mL
- Cmax at 288 h [1, 3]: 49.8 ± 17 ng/mL
- Cmax at 288 h [1, 4]: 48.2 ng/mL
- half-life ([1]; human, plasma, po, 2 mg, 2.0 mg oral QD, read-out: t1/2 (mean) (converted)): 61 ± 26 h
- half-life ([1]; human, plasma, po, 2 mg, 2.0 mg oral QD, read-out: t1/2 (median) (converted)): 52.3 h
- AUC(0-t) at 24 h ([1]; human, plasma, po, 5 mg, 5.0 mg oral QD, read-out: AUC0-24 (mean)): 642 ± 125 ng·h/mL
- AUC(0-t) at 24 h ([1]; human, plasma, po, 5 mg, 5.0 mg oral QD, read-out: AUC0-24 (median)): 609 ng·h/mL
- Cmax at 24 h [1, 5]: 49.7 ± 13 ng/mL
- Cmax at 24 h [1, 6]: 49.5 ng/mL
- AUC(0-t) at 24 h ([1]; human, plasma, po, 5 mg, 5.0 mg oral QD, read-out: highest individual AUC0-24): 853 ng·h/mL
- AUC tau ([1]; human, plasma, po, 5 mg, 5.0 mg oral QD, read-out: AUCtau (mean)): 1800 ng·h/mL
- AUC tau ([1]; human, plasma, po, 5 mg, 5.0 mg oral QD, read-out: AUCtau (median)): 1800 ng·h/mL
- Cmax at 288 h [1, 5]: 99.1 ng/mL
- Cmax at 288 h [1, 6]: 106 ng/mL
- AUC tau ([1]; human, plasma, po, 5 mg, 5.0 mg oral QD, read-out: highest individual AUCtau): 2170 ng·h/mL
- half-life ([1]; human, plasma, po, 5 mg, 5.0 mg oral QD, read-out: t1/2 (mean) (converted)): 39 ± 9 h
- half-life ([1]; human, plasma, po, 5 mg, 5.0 mg oral QD, read-out: t1/2 (median) (converted)): 37.1 h
- concentration at 0.5 h ([1]; human, plasma, po, 0.5 h post-dose, all except 1 participant, read-out: individual plasma concentrations versus LLOQ): > 0.05 ng/mL
- Tmax ([1]; human, plasma, po, Day 1 and Day 12, all doses except 5.0 mg on Day 1, read-out: Tmax (median)): 3 h
- Tmax at 24 h [1, 7]: 3 h
- Tmax at 288 h [1, 7]: 3 h
- Tmax at 24 h [1, 8]: 3 h
- Tmax at 288 h [1, 8]: 3 h
- Tmax at 24 h [1, 9]: 3 h
- Tmax at 288 h [1, 9]: 3 h
- Tmax at 24 h [1, 10]: 3 h
- Tmax at 288 h [1, 10]: 3 h
- Tmax at 24 h [1, 11]: 4.5 h
- Tmax at 288 h [1, 11]: 3 h
- Tmax at 24 h ([1]; human, plasma, up to 2.0 mg oral QD, read-out: Tmax (median)): 3 h
- absorption ([1]; oral): rapidly absorbed
- end of absorption and distribution phase ([1]; plasma, after which elimination phase commenced): approximately 12 h
- concentration decline profile ([1]; plasma, oral QD): bi-exponential decline
- variability in key PK parameters ([1]; up to 5.0 mg repeatedly for 12 days): acceptable
- MOAA/S score (alertness/sedation; 5.0 mg, 1 participant): 2
- sedation versus placebo by MOAA/S (alertness/sedation; 0.5-5.0 mg oral QD 12 days): little to no impairment of alertness and no frank sedation; also recorded: did not demonstrate a difference from placebo in sedation
- MOAA/S score (alertness/sedation; other participants at 5.0 mg and all other Cohorts): above 3
- EC50 [2]: 0.82 nM
- Emax [2]: 89%

Source: patent US20260345621A1, “GABAA RECEPTOR MODULATORS AND USES THEREOF” (Engrail Therapeutics, Inc., priority 2022, published 2026)
